Tested on: influenza A virus (IAV) A/Aichi/2/68 (H3N2)
Assay: Cytopathic effect (CPE) assay
Assay type: cell-based
Details: Influenza A virus, H3N2; MDCK cells, 48 hrs
For `COc1ccc(CNc2nc3c(=O)c(C(=O)O)cn(Cc4ccc(Cl)cc4-c4ccccc4)c3s2)cc1`, the IC50 was 22 µM. `COc1ccc(S(=O)(=O)Nc2nc3c(=O)c(C(=O)O)cn(C(c4ccccc4)c4ccccc4)c3s2)cc1` showed an IC50 of 31 µM. With `O=C(O)c1cn(Cc2ccccc2-c2ccccc2)c2sc(NS(=O)(=O)Cc3ccc(Cl)cc3Cl)nc2c1=O` the IC50 was 20 µM. In the case of `O=C(O)c1cn(C(c2ccccc2)c2ccccc2)c2sc(O)nc2c1=O`, the IC50 is reported as 47 µM. For `N#Cc1ccc(S(=O)(=O)Nc2nc3c(=O)c(C(=O)O)cn(Cc4ccccc4-c4ccc(Cl)cc4)c3s2)cc1`, the IC50 was 14 µM. With `O=C(O)c1cn(Cc2ccccc2-c2ccccc2)c2sc(NCc3ccccc3)nc2c1=O` the IC50 was 19 µM. `O=C(O)c1cn(C(c2ccccc2)c2ccccc2)c2sc(NS(=O)(=O)c3ccc(Cl)cc3F)nc2c1=O` showed an IC50 of 26 µM. With `CCOC(=O)c1cn(C(c2ccccc2)c2ccccc2)c2sc(NCc3cccc(Cl)c3)nc2c1=O` the IC50 was 27 µM. Work on `O=C(O)c1cn(Cc2ccccc2-c2ccccc2)c2sc(O)nc2c1=O` yielded an IC50 of 33 µM. For `O=C(O)c1cn(Cc2ccc(Cl)cc2-c2ccccc2)c2sc(O)nc2c1=O`, the IC50 was 18 µM. `COc1ccc(S(=O)(=O)Nc2nc3c(=O)c(C(=O)O)cn(Cc4ccccc4-c4ccc(Cl)cc4)c3s2)cc1` gave an IC50 of 8.9 µM. Compound `O=C(O)c1cn(Cc2ccccc2-c2ccccc2)c2sc(NS(=O)(=O)c3ccc(Cl)cc3F)nc2c1=O` has an IC50 of 11 µM. `O=C(O)c1cn(Cc2ccccc2-c2ccccc2)c2sc(NS(=O)(=O)c3ccccc3)nc2c1=O` gave an IC50 of 17 µM. For `O=C(O)c1cn(Cc2ccccc2-c2ccccc2)c2sc(NC3CC3)nc2c1=O`, the IC50 was 31 µM. `O=C(O)c1cn(C(c2ccccc2)c2ccccc2)c2sc(NCc3cccc(Cl)c3)nc2c1=O` gave an IC50 of 32 µM. With `CCOC(=O)c1cn(C(c2ccccc2)c2ccccc2)c2sc(NCc3ccc(Cl)cc3)nc2c1=O` the IC50 was 45 µM. For `O=C(O)c1cn(Cc2ccccc2-c2ccccc2)c2sc(NCc3ccc(Cl)cc3)nc2c1=O`, the IC50 was 9.3 µM. Work on `CCOC(=O)c1cn(Cc2ccccc2-c2ccccc2)c2sc(NS(=O)(=O)c3ccc(Cl)cc3)nc2c1=O` yielded an IC50 of 23 µM. `O=C(O)c1cn(Cc2ccccc2-c2ccccc2)c2sc(NCc3cccc(Cl)c3)nc2c1=O` gave an IC50 of 12 µM. `COc1ccc(S(=O)(=O)Nc2nc3c(=O)c(C(=O)O)cn(Cc4ccccc4-c4ccccc4)c3s2)cc1` gave an IC50 of 15 µM. `O=C(O)c1cn(C(c2ccccc2)c2ccccc2)c2sc(NCc3ccccc3)nc2c1=O` gave an IC50 of 14 µM. With `COc1ccc(CNc2nc3c(=O)c(C(=O)O)cn(Cc4ccccc4-c4ccccc4)c3s2)cc1` the IC50 was 11 µM. For `CC(Nc1nc2c(=O)c(C(=O)O)cn(Cc3ccccc3-c3ccccc3)c2s1)c1ccccc1` (stereo not shown), the IC50 was 24 µM. In the case of `CCOC(=O)c1cn(C(c2ccccc2)c2ccccc2)c2sc(NS(=O)(=O)c3ccc(OC)cc3)nc2c1=O`, the IC50 is reported as 36 µM. `O=C(O)c1cn(Cc2ccccc2-c2ccccc2)c2sc(NS(=O)(=O)c3cccc(F)c3)nc2c1=O` gave an IC50 of 19 µM.

Same assay, conditions: MDCK cells, 48 hrs
With `O=C(O)c1cn(Cc2ccccc2-c2ccccc2)c2ccnn2c1=O` the “CPE activity in words” value was “inactive”. For `Nc1cc2n(C(=O)C3(c4ccccc4)CCCC3)cc(C(=O)O)c(=O)n2n1` [drawing 213], the “CPE activity in words” value was “inactive”. For `O=C(O)c1c[nH]c2ccnn2c1=O` [drawing 207], the “CPE activity in words” value was “inactive”. In the case of `O=C(O)c1cn(Cc2ccccc2-c2ccccc2)c2sc(N3CCOCC3)nc2c1=O`, the “CPE activity in words” value is reported as “inactive”. In the case of `CC(C)c1cc2n(CCCc3ccccc3)cc(C(=O)O)c(=O)n2n1`, the “CPE activity in words” value is reported as “inactive”. For `O=C(O)c1cn(CCc2cccc(Cl)c2)c2cc(C3CC3)nn2c1=O` [drawing 215], the “CPE activity in words” value was “inactive”. For `Nc1cc2n(S(=O)(=O)Cc3ccccc3)cc(C(=O)O)c(=O)n2n1`, the “CPE activity in words” value was “inactive”. In the case of `O=C(O)c1cn(CCc2cccc(F)c2)c2cc(C3CC3)nn2c1=O` [drawing 216], the “CPE activity in words” value is reported as “inactive”. With `CC(C)c1cc2[nH]cc(C(=O)O)c(=O)n2n1` the “CPE activity in words” value was “inactive”. With `COc1ccc(CCn2cc(C(=O)O)c(=O)n3nc(C4CC4)cc23)cc1` [drawing 223] the “CPE activity in words” value was “inactive”. For `CS(=O)(=O)n1cc(C(=O)O)c(=O)n2nc(N)cc12`, the “CPE activity in words” value was “inactive”. For `COCCNc1nc2c(=O)c(C(=O)O)cn(Cc3ccccc3-c3ccccc3)c2s1`, the “CPE activity in words” value was “inactive”. In the case of `O=C(O)c1c[nH]c2nc(NCc3ccccc3)nn2c1=O` [drawing 211], the “CPE activity in words” value is reported as “inactive”. For `O=C(O)c1cn(CCc2cccc(C(F)(F)F)c2)c2cc(C3CC3)nn2c1=O` [drawing 221], the “CPE activity in words” value was “inactive”. With `Nc1cc2n(S(=O)(=O)c3ccccc3)cc(C(=O)O)c(=O)n2n1` the “CPE activity in words” value was “inactive”. For `Nc1nc2c(=O)c(C(=O)O)cn(Cc3ccccc3-c3ccccc3)c2s1`, the “CPE activity in words” value was “inactive”. For `O=C(O)c1cn(Cc2ccccc2-c2ccccc2)c2scnc2c1=O`, the “CPE activity in words” value was “inactive”. With `O=C(O)c1cn(CCc2ccccc2)c2cc(C3CCCC3)nn2c1=O` [drawing 218] the “CPE activity in words” value was “inactive”. In the case of `O=C(O)c1c[nH]c2cc(C3CCCC3)nn2c1=O`, the “CPE activity in words” value is reported as “inactive”. With `CS(=O)(=O)Nc1nc2c(=O)c(C(=O)O)cn(Cc3ccccc3-c3ccccc3)c2s1` the “CPE activity in words” value was “inactive”. With `Nc1cc2n(Cc3ccccc3-c3ccccc3)cc(C(=O)O)c(=O)n2n1` the “CPE activity in words” value was “inactive”. With `CC(C)Nc1nc2c(=O)c(C(=O)O)cn(Cc3ccccc3-c3ccccc3)c2s1` the “CPE activity in words” value was “inactive”. In the case of `CNc1nc2c(=O)c(C(=O)O)cn(Cc3ccccc3-c3ccccc3)c2s1`, the “CPE activity in words” value is reported as “inactive”. For `CCOC(=O)c1cn(CCc2ccc(O)cc2)c2cc(C3CC3)nn2c1=O` [drawing 220], the “CPE activity in words” value was “inactive”. For `O=C(O)c1cn(CCc2ccc(O)cc2)c2cc(C3CC3)nn2c1=O` [drawing 222], the “CPE activity in words” value was “inactive”.

Tested on: not given
Assay: not given
Details: not given
For `CCOC(=O)c1c[nH]c2cc(C(=O)NCCc3ccc(Cl)cc3)nn2c1=O`, the melting point was > 300 °C. `CCOC(=O)c1cn(Cc2ccccc2)c2cc(C(C)C)nn2c1=O` showed a melting point of 135 to 140 °C. For `CCOC(=O)Cc1c[nH]c2cc(C3CC3)nn2c1=O`, the melting point was 280 to 283 °C. With `O=C(O)c1cn(CCCc2ccccc2)c2cc(C3CC3)nn2c1=O` the melting point was 95 to 100 °C. For `CCOC(=O)c1cn(CCc2cccc(C(F)(F)F)c2)c2cc(C3CC3)nn2c1=O`, the melting point was 140 to 145 °C. Work on `CCOC(=O)c1c[nH]c2nc(NCc3cccc4ccccc34)nn2c1=O` yielded a melting point of 273 to 275 °C. `CCOC(=O)Cc1c[nH]c2nc(Nc3ccccc3)nn2c1=O` showed a melting point of 255 to 257 °C. For `CCOC(=O)Cc1c[nH]c2cc(-c3ccccc3)nn2c1=O`, the melting point was 245 to 250 °C. With `CCOC(=O)c1c[nH]c2nc(NCc3ccccc3)nn2c1=O` the melting point was 275 to 278 °C. In the case of `O=C(O)c1cn(CCc2cccc(Cl)c2)c2cc(C3CC3)nn2c1=O`, the melting point is reported as 230 to 235 °C. For `O=C(O)Cc1c[nH]c2cc(C3CC3)nn2c1=O`, the melting point was > 300 °C. Work on `CCOC(=O)c1c[nH]c2cc(C(=O)NC3CCN(Cc4ccccc4)CC3)nn2c1=O` yielded a melting point of 264 to 266 °C. Work on `O=C(O)c1cn(CCc2ccc(Cl)cc2)c2cc(C3CC3)nn2c1=O` yielded a melting point of 220 to 225 °C. Compound `CCOC(=O)c1c[nH]c2cc(C(=O)NCc3ccccc3)nn2c1=O` has a melting point of 290 to 292 °C. With `CCOC(=O)c1cn(CCc2ccccc2)c2cc(C(C)C)nn2c1=O` the melting point was 130 to 135 °C. For `O=C(O)c1c[nH]c2cc(C3CC3)nn2c1=O`, the melting point was 275 to 278 °C. In the case of `O=C(O)c1cn(CCc2ccc(C(F)(F)F)cc2)c2cc(C3CC3)nn2c1=O`, the melting point is reported as 225 to 230 °C. Compound `O=C(O)c1cn(CCc2ccccc2)c2cc(C3CC3)nn2c1=O` has a melting point of 185 to 190 °C. In the case of `CCOC(=O)c1c[nH]c2nc(Nc3ccc(NC(C)=O)cc3)nn2c1=O`, the melting point is reported as > 330 °C. In the case of `CCOC(=O)c1c[nH]c2nc(NCc3ccc(Br)cc3)nn2c1=O`, the melting point is reported as 286 to 287 °C. `O=C(O)c1c[nH]c2nc(NCc3cccc4ccccc34)nn2c1=O` showed a melting point of 245 to 250 °C. `CCOC(=O)c1cn(CCc2cccc(F)c2)c2cc(C3CC3)nn2c1=O` gave a melting point of 160 to 165 °C. For `O=C(NCCc1ccc(Cl)cc1)c1cc2[nH]cc(C(=O)O)c(=O)n2n1`, the melting point was > 300 °C. With `CCOC(=O)Cc1c[nH]c2nc(Nc3ccc(OC(C)C)cc3)nn2c1=O` the melting point was 235 to 240 °C. `O=C(O)c1cn(Cc2ccccc2)c2cc(C3CC3)nn2c1=O` showed a melting point of 210 to 215 °C. Work on `CCOC(=O)Cc1cn(C)c2cc(C3CC3)nn2c1=O` yielded a melting point of 147 to 150 °C. For `O=C(O)c1cn(Cc2ccccc2)c2cc(C3CCCC3)nn2c1=O`, the melting point was 213 to 215 °C. For `O=C(O)Cc1c[nH]c2nc(Nc3ccccc3)nn2c1=O`, the melting point was 279 to 281 °C. With `CC(C)c1cc2n(Cc3ccccc3)cc(C(=O)O)c(=O)n2n1` the melting point was 180 to 185 °C. For `O=C(O)c1c[nH]c2cc(C(F)(F)F)nn2c1=O`, the melting point was > 340 °C. `O=C(O)c1c[nH]c2nc(NCc3ccccc3)nn2c1=O` showed a melting point of 240 to 245 °C. Work on `CCOC(=O)c1cn(CCc2ccc(O)cc2)c2cc(C3CC3)nn2c1=O` yielded a melting point of 95 to 100 °C. Compound `CCOC(=O)c1cn(Cc2ccccc2)c2cc(C3CC3)nn2c1=O` has a melting point of 160 to 165 °C. `CCOC(=O)c1cn(CCCc2ccccc2)c2cc(C3CC3)nn2c1=O` showed a melting point of 150 to 155 °C. `COc1ccc(CCn2cc(C(=O)O)c(=O)n3nc(C4CC4)cc23)cc1` showed a melting point of 145 to 150 °C. In the case of `O=C(O)c1cn(CCc2cccc(F)c2)c2cc(C3CC3)nn2c1=O`, the melting point is reported as 220 to 225 °C. Compound `O=C(O)c1cn(CCc2ccc(O)cc2)c2cc(C3CC3)nn2c1=O` has a melting point of 265 to 270 °C. With `CCOC(=O)c1cn(CCc2ccccc2)c2cc(C3CC3)nn2c1=O` the melting point was 155 to 160 °C. Compound `CCOC(=O)c1cn(CCc2ccc(OC)cc2)c2cc(C3CC3)nn2c1=O` has a melting point of 160 to 165 °C. `O=C(O)Cc1c[nH]c2cc(C(F)(F)F)nn2c1=O` gave a melting point of 320 to 324 °C. Compound `CCOC(=O)c1c[nH]c2c(C#N)c(CCCNC)nn2c1=O` has a melting point of 285 to 287 °C. For `O=C(O)c1cn(CCc2ccccc2)c2cc(C3CCCC3)nn2c1=O`, the melting point was 198 to 200 °C. Compound `O=C(O)c1cn(CCc2cccc(C(F)(F)F)c2)c2cc(C3CC3)nn2c1=O` has a melting point of 200 to 205 °C. For `CCOC(=O)c1c[nH]c2nc(Nc3ccc(C)c(Cl)c3)nn2c1=O`, the melting point was > 340 °C.

Reference: US20160367557A1, “HE[…] ACID DERIVATIVES WHICH ARE USEFUL IN THE TREATMENT, AMELIORATION OR PREVENTION OF A VIRAL DISEASE” (Savira pharmaceuticals GmbH, priority 2012, published 2016)
